# Assay: not given
# Conditions: not given
row,logP,SMILES
1,0.13,O=c1ccnc2n1CCCC2
2,1.58,CCc1cnc2cccc(C)n2c1=O
3,0.3,O=c1ccnc2ccccn12
4,0.37,CC1CCCc2nccc(=O)n21 (stereo not given)

# Assay: method code SF-AS, from DOI: 10.1016/s0021-9673(01)88398-9
# Conditions: pH 5.0
row,logD,SMILES
1,0.67,Cc1cc(=O)n2c(n1)CCCC2C (stereo not given)
2,2.22,CCCc1c(C)nc2cccc(C)n2c1=O
3,0.74,Cc1cccc2nccc(=O)n12
4,1.86,CCc1c(C)nc2cccc(C)n2c1=O
5,1.43,CCc1c(C)nc2n(c1=O)C(C)CCC2 (stereo not given)
6,1.27,Cc1cnc2cccc(C)n2c1=O

# From the SangsterLogP compilation
